For assay [1], the target named is T1, Kv1.3 potassium channel (Homo sapiens, UniProt P22001).
T1 construct: expressed in transfected cells
The experiment in a line: Kv1.3 potassium channel blocker activity, automated whole-cell patch clamp (Patchliner). It counts as cell-based. The note with it: CHO-K1 cells stably expressing Kv1.3; whole cell current inhibition; read-out: Kv1.3_IC50. The method, boiled down:
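Peak-current block was recorded on stable Kv1.3 CHO-K1 cells by automated patch clamp, stepping from a −90 mV holding potential to +40 mV for 100 ms at 0.1 Hz with 10 s breaks between trains. Online P/4 leak subtraction, 10 kHz sampling; compound exposure under 10 s per train.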
(The patch-clamp technique gives a direct electrical read-out from membranes.)

For assay [2], the target named is hERG channel (Homo sapiens, UniProt Q12809). The experiment in a line: hERG electrophysiology, automated whole-cell patch clamp (Patchliner). (In general: The hERG channel carries a current that helps repolarise heart muscle cells.)
Chain of hERG channel (Q12809 whole entry): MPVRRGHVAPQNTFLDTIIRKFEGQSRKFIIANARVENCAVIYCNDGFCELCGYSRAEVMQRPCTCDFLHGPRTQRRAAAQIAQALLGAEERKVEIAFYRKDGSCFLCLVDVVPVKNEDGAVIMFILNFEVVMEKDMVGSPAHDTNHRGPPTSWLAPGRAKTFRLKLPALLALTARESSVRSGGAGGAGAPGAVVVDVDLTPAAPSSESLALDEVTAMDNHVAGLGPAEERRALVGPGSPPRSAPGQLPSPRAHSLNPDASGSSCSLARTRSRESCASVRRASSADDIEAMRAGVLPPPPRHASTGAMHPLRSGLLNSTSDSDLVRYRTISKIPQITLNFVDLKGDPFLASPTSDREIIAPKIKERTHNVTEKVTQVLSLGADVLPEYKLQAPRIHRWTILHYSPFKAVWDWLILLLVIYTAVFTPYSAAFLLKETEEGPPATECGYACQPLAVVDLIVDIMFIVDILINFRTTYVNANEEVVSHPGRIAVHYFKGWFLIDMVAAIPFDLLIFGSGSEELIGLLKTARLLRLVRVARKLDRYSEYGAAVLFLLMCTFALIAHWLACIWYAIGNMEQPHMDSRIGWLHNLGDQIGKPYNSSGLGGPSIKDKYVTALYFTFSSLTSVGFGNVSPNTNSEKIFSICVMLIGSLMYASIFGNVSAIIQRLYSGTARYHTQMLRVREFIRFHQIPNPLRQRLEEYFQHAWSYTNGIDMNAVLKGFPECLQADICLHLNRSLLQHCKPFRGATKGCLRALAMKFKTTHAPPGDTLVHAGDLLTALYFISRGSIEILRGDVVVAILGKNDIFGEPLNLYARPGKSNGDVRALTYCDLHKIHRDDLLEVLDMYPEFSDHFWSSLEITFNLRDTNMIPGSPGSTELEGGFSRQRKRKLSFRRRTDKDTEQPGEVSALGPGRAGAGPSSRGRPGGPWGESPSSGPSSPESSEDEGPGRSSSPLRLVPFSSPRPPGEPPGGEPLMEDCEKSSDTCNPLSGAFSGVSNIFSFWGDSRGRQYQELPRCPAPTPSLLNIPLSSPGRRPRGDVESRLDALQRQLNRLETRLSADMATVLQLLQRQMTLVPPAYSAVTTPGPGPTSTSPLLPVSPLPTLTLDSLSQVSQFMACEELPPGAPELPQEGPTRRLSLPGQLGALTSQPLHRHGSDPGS

T1 sequence (P22001 whole entry): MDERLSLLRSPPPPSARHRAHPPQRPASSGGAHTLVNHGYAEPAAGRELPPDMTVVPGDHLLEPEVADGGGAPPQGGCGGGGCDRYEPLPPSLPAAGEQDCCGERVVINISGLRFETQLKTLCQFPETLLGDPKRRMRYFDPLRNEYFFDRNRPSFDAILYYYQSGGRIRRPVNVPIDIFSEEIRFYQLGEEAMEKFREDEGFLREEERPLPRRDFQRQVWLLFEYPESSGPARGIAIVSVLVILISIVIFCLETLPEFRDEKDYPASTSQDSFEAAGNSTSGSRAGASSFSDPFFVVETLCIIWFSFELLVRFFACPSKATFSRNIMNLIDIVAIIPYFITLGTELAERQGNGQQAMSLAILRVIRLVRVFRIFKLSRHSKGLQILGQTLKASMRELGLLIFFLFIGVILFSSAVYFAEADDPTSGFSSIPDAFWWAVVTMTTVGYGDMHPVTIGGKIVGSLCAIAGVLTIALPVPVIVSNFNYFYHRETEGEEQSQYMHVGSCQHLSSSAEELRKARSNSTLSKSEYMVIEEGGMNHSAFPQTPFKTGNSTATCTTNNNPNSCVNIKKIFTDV

With `CN1CC[C@@H](C(=O)N2CCC([C@@H](N)c3cc(Cl)c(Cl)cc3O)CC2)C1` [Compound 104, 2-[(R)-amino([1-[(3R)-1-methylpyrrolidine-3-carbonyl]piperidin-4-yl])methyl]-4,5-dichlorophenol], the IC50 (in general, the concentration that inhibits the measured activity by half) was below 0.5 µM in assay [1] and above 30 µM in assay [2].
Consider `O=C([C@@H]1CCNC1)N1CCC(Cc2c(O)ccc(Cl)c2Cl)CC1` [Compound 122, 3,4-dichloro-2-([1-[(3R)-pyrrolidine-3-carbonyl]piperidin-4-yl]methyl)phenol Trifluoroacetic Acid], for which the IC50 was below 0.5 µM in assay [1] and below 30 µM in assay [2].
On the same counts, the results for `Cc1cc(O)c([C@H](N)C2CCN(C(=O)c3c[nH]c(=O)c(C#N)c3)CC2)cc1Cl` [Compound 280, (R)-5-(4-(amino (5-chloro-2-hydroxy-4-methylphenyl)methyl)piperidine-1-carbonyl)-2-oxo-1,2-dihydro-pyridine-3-carbonitrile] are below 0.5 µM and above 30 µM.
For `N[C@@H](c1cc(Cl)c(Cl)cc1O)C1CCN(C(=O)c2cnc[nH]2)CC1` [Compound 164, 2-[(R)-amino[1-(1H-imidazole-4-carbonyl)piperidin-4-yl]methyl]-4,5-dichlorophenol formic acid] the same measures were below 10 µM and above 30 µM.
Regarding `CO[C@@H](CO)C(=O)N1CCC([C@@H](N)c2cc(Cl)c(Cl)cc2O)CC1` [Compound 185, (2S)-1-[4-[(R)-amino(4,5-dichloro-2-hydroxyphenyl)methyl]piperidin-1-yl]-3-hydroxy-2-methoxypropan-1-one trifluoroacetic acid], the IC50 is below 10 µM in assay [1] and above 30 µM in assay [2].
On the same counts, the results for `N[C@@H](c1cc(Cl)c(Cl)cc1O)C1CCN(C(=O)C2(O)CNC2)CC1` [Compound 219, 3-[4-[(R)-amino(4,5-dichloro-2-hydroxyphenyl)methyl]piperidine-1-carbonyl]azetidin-3-ol Trifluoroacetic Acid] are below 0.5 µM and above 30 µM.
For `N[C@@H](c1cc(Cl)c(Cl)cc1O)C1CCN(C(=O)N2CC(O)C2)CC1` [Compound 148, 1-[4-[(R)-amino(4,5-dichloro-2-hydroxyphenyl)methyl]piperidine-1-carbonyl]azetidin-3-ol Trifluoroacetic Acid] the same measures were below 0.5 µM and above 30 µM.
Turning to `N[C@@H](c1cc(Cl)c(Cl)cc1O)C1CCN(C(=O)CCO)CC1` [Compound 133, 1-[4-[(R)-amino(4,5-dichloro-2-hydroxyphenyl)methyl]piperidin-1-yl]-3-hydroxypropan-1-one trifluoroacetic acid], the IC50 in assay [1] is below 0.5 µM; in assay [2] it was above 30 µM.
For `NC(c1c(O)cc(Cl)c(Cl)c1F)C1CCN(C(=O)[C@H](O)CO)CC1` (stereo partly drawn) [Compound 328, (2R)-1-[4-[amino(3,4-dichloro-2-fluoro-6-hydroxyphenyl)methyl]piperidin-1-yl]-2,3-dihydroxypropan-1-one Trifluoroacetic Acid] the same measures were below 0.5 µM and above 30 µM.
Regarding `NC(=O)N1CCC(C(N)c2cc(Cl)c(Cl)cc2O)CC1` (centres unmarked) [Compound 53, 4-[amino(4,5-dichloro-2-hydroxyphenyl)methyl]piperidine-1-carboxamide], the half-maximal inhibitory concentration (IC50) is below 0.5 µM in assay [1] and above 30 µM in assay [2].
On the same counts, the results for `N[C@@H](c1cc(Cl)c(Cl)cc1O)C1CCN(C(=O)c2ccn[nH]2)CC1` [Compound 136, 2-[(R)-amino[1-(1H-pyrazole-3-carbonyl)piperidin-4-yl]methyl]-4,5-dichlorophenol trifluoroacetic acid] are below 10 µM and above 30 µM.
For `CC(=O)NC(c1c(O)ccc2ccccc12)C1CCNCC1` (centres unmarked) [Compound 36, N-[(2-hydroxynaphthalen-1-yl)(piperidin-4-yl)methyl]acetamide Trifluoroacetic Acid] the same measures were below 10 µM and above 30 µM.
In the case of `CC1(C(=O)N2CCC([C@@H](N)c3cc(Cl)c(Cl)cc3O)CC2)CNC1` [Compound 109, (R)-(4-(amino(4,5-dichloro-2-hydroxyphenyl)methyl)piperidin-1-yl)(3-methylazetidin-3-yl)methanone], the figures for the IC50 in assay [1] and in assay [2] were below 0.5 µM and above 30 µM, respectively.
With `N[C@@H](c1cc(Cl)c(CF)cc1O)C1CCN(C(=O)[C@H](O)CO)CC1` [Compound 226, (2R)-1-[4-[(R)-amino[5-chloro-4-(fluoromethyl)-2-hydroxyphenyl]methyl]piperidin-1-yl]-2,3-dihydroxypropan-1-one Trifluoroacetic Acid], the half-inhibitory concentration (IC50) in assay [1] was below 0.5 µM; in assay [2], above 30 µM.
Regarding `N[C@@H](c1cc(Cl)c(Cl)cc1O)C1CCN(C(=O)[C@@H]2CNC(=O)C2)CC1` [Compound 224, (4S)-4-[4-[(R)-amino(4,5-dichloro-2-hydroxyphenyl)methyl]piperidine-1-carbonyl] pyrrolidin-2-one trifluoroacetic acid], the concentration for half-maximal inhibition (IC50) in assay [1] was below 0.5 µM; in assay [2], above 30 µM.
For `CC(C)(O)CC(=O)N1CCC(C(N)c2cc(Cl)c(Cl)cc2O)CC1` (centres unmarked) [Compound 49, 1-(4-(amino(4,5-dichloro-2-hydroxyphenyl)methyl)piperidin-1-yl)-3-hydroxyl-3-methylbutan-1-one trifluoroacetic acid] the same measures were below 10 µM and below 30 µM.
`CC(=O)NC(c1cc(Cl)c(Cl)cc1O)C1CCNCC1` (centres unmarked) [Compound 11, N-[(4,5-dichloro-2-hydroxyphenyl)(piperidin-4-yl)methyl]acetamide]: the IC50 in assay [1] was below 10 µM; in assay [2], above 30 µM.
In the case of `NC(c1cc(Cl)c(Cl)cc1O)C1CCN(c2ccccn2)CC1` (centres unmarked) [Compound 70, 2-[amino[1-(pyridin-2-yl)piperidin-4-yl]methyl]-4,5-dichlorophenol Trifluoroacetic Acid], the IC50 in assay [1] is below 0.5 µM; in assay [2], below 30 µM.
On to `CNC(c1cc(Cl)c(Cl)cc1O)C1CCN(C(=O)[C@H](O)CO)CC1` (stereo partly drawn) [Compound 196, (2R)-1-[4-[(4,5-dichloro-2-hydroxyphenyl)(methylamino)methyl]piperidin-1-yl]-2,3-dihydroxypropan-1-one], for which the IC50 in assay [1] is below 10 µM; in assay [2] it was above 30 µM.
On the same counts, the results for `N[C@@H](c1cc(Cl)c(Cl)cc1O)C1CCN(C(=O)[C@H]2COCCO2)CC1` [Compound 169, 2-[(R)-amino([1-[(2R)-1,4-dioxane-2-carbonyl]piperidin-4-yl])methyl]-4,5-dichlorophenol trifluoroacetic acid] are below 10 µM and below 30 µM.
On the same counts, the results for `C[C@](O)(CO)C(=O)N1CCC([C@@H](N)c2cc(Cl)c(Cl)cc2O)CC1` (single isomer, unassigned; isomer 2) [Compound 218] are below 10 µM and above 30 µM.
For `N[C@@H](c1cc(Cl)c(Cl)cc1O)C1CCN(C(=O)C23CC(O)(C2)C3)CC1` [Compound 160, 3-[4-[(R)-amino(4,5-dichloro-2-hydroxyphenyl)methyl]piperidine-1-carbonyl]bicyclo [1.1.1]pentan-1-ol trifluoroacetic acid] the same measures were below 10 µM and below 30 µM.

Source of the values: US20230023559A1, “ARYLMETHYLENE HETEROCYCLIC COMPOUNDS AS KV1.3 POTASSIUM SHAKER CHANNEL BLOCKERS” (D. E. Shaw Research, LLC, priority 2019, published 2023).
